Values of other authors as cited in US7138151B2, “Calcium-fortified acidic beverages” (Unilab Pharmatech, Ltd., priority 2002, dated 2006).

Conditions: initially clear metastable solution from citric acid and calcium base

## O=C([O-])CC(O)(CC(=O)[O-])C(=O)[O-].O=C([O-])CC(O)(CC(=O)[O-])C(=O)[O-].[Ca+2].[Ca+2].[Ca+2] [in-situ solubilized calcium citrate, calcium citrate]
  time at which calcium citrate starts to precipitate out of solution: ≤ 24 h
